{"source": "patent US4965262A", "about": "“Method for treating or preventing locally periodontal disease” (Rohto Pharmaceutical Co., Ltd., priority 1987, dated 1990)", "key": {"[1]": {"experiment": "Concentration of ofloxacin in periodontal fluid in the pockets after local administration", "type": "in vivo, volunteers", "protocol": "The preparations of Example 3 containing ofloxacin to be inserted into the periodontal pockets were locally administered to the pockets of volunteers and the concentration of ofloxacin in the periodontal fluid in the pockets was determined and compared with that in saliva obtained by oral administration thereof. In the test, the preparations of Example 3 having a thickness of 0.3 mm and width of 1 mm was cut into strips having a length of 4 mm (each containing 0.06 mg of ofloxacin). The strip was inserted into a periodontal pocket of each volunteer. The probing depth of the pocket was 5 mm. After a given time, a filter paper having a width of 1 mm was inserted into the pocket to take the periodontal fluid out of the pocket. The amount of ofloxacin in the periodontal fluid was determined from the diameter of an inhibition circle according to an agar plate diffusion method with E. coli K 12. The quantity of the periodontal fluid thus taken out was determined from a calibration curve prepared from the quantity of a previously prepared liquid sample and the wetted area of the filter paper. The concentration of ofloxacin was thus determined. The time profile of the concentration of ofloxacin in saliva in the oral administration was taken from a report of Morihana et al. (Chemotherapy, 32: Sl, 1070, 1984)."}, "[2]": {"conditions": "cited from earlier work; for average concentration of ofloxacin in saliva: oral, 200 mg/body, 8 subjects"}, "[3]": {"test_system": "dogs", "conditions": "cited from earlier work"}, "[4]": {"test_system": "monkeys", "conditions": "cited from earlier work"}}, "note": "Read-outs that look alike come from different tables or passages of the source."}
{"molecule": "CC1COc2c(N3CCN(C)CC3)c(F)cc3c(=O)c(C(=O)O)cn1c23", "note": "(stereo not drawn) [ofloxacin, 9-fluoro-2,3-dihydro-3-methyl-10-(4-methyl-1-piperazinyl)-7-oxo-7H-pyrido[1,2,3-de][1,4]benzoxazine-6-carboxylic acid]", "values": [{"measurement": "time for which concentration in the pocket was maintained above 70 μg/ml", "setting": "[1]; 0.06 mg inserted into the periodontal pocket", "value": "> 5", "unit": "h"}, {"measurement": "concentration at 5 h", "setting": "[1]; human, periodontal fluid, 0.06 mg inserted into the periodontal pocket, for longer than 5 h, read-out: concentration in the pocket maintained", "value": "> 70000", "unit": "ng/mL"}, {"measurement": "concentration at 24 h", "setting": "[1]; human, periodontal fluid, 0.06 mg/pocket, 24 h, 8 pockets of 4 subjects", "value": 16600, "unit": "ng/mL"}, {"measurement": "maximum concentration in saliva", "setting": "[2]; oral administration of 200 mg, in 3 hours", "value": 1.8, "unit": "µg/mL"}, {"measurement": "time of maximum concentration in saliva", "setting": "[2]; oral administration of 200 mg", "value": 3, "unit": "h"}, {"measurement": "average concentration of ofloxacin in saliva", "setting": "[2]; 1 h", "value": 1.18, "unit": "µg/mL"}, {"measurement": "average concentration of ofloxacin in saliva", "setting": "[2]; 2 h", "value": 1.59, "unit": "µg/mL"}, {"measurement": "average concentration of ofloxacin in saliva", "setting": "[2]; 3 h", "value": 1.80, "unit": "µg/mL"}, {"measurement": "average concentration of ofloxacin in saliva", "setting": "[2]; 4 h", "value": 1.65, "unit": "µg/mL"}, {"measurement": "average concentration of ofloxacin in saliva", "setting": "[2]; 5 h", "value": 1.40, "unit": "µg/mL"}, {"measurement": "Acute toxicity (LD50 in oral administration)", "setting": "[3]", "value": "≥ 200", "unit": "mg/kg"}, {"measurement": "Acute toxicity (LD50 in oral administration)", "setting": "[4]", "value": "500 to 1,000 mg/kg"}]}
